The subject of series [1] is C1R-A2402 cells pulsed with CDC45L derived peptides.
Protocol: The DCs were pulsed with 20 micro-g/mL of the candidate peptides in the presence of 4 micro-g/mL beta 2-microglobulin (Sigma-Aldrich) for 2 h at 37 degrees C. in AIM-V (Invitrogen) supplemented with 2% heat-inactivated autologous plasma. The cells were then irradiated (40 Gy) and incubated with the isolated CD8^+ T cells as described previously (Imai K et al., Clin Cancer Res 2008; 14:6487-95, Harao M et al., Int J Cancer 2008; 123:2616-25). Two additional stimulations with peptide-loaded autologous PHA-blasts were performed on days 7 and 14. The PHA-blasts were generated as described previously (Inoue M et al., Immunol Lett 2009; 126:67-72), and these PHA-blasts (5×10^5) were pulsed with 20 micro-g/mL peptides for 3 h, irradiated (100 Gy) and cultured with the 2×10^6 CD8^+ T cells in the presence of 10 ng/mL human recombinant IL-7 (Wako, Osaka, Japan). After 2 days, the cultures were supplemented with 20 IU/mL human recombinant IL-2 (PeproTec, Inc.).
Six days after the last stimulation, the antigen-specific responses of the induced CTLs were investigated. Two additional weekly stimulations with peptide-loaded autologous PHA-blasts were carried out on day 7 and 14. Autologous CD 14^− CD8^− cells enriched with CD4^+ T cells were cultured with PHA (2 micro-g/mL) and human recombinant IL-2 (100 IU/mL) for 2 days, and cells were washed with PBS and cultured with human recombinant IL-2 (100 IU/mL) for additional three days. These PHA-blasts (5×10^5) were pulsed with 50 micro-g/mL peptides for 2 hours at 37 degrees C. in AIM-V (Invitrogen) supplemented with 2% heat-inactivated autologous plasma. The cells were then irradiated (100 Gy) and incubated with the 2×10^6 CD8^+ T cells. These cultures were set up in 24-well plates using the medium supplemented with 5 ng/mL human recombinant IL-7, IL-2, and IL-15. Six days after the last stimulation, the antigen-specific responses of the induced CTLs were investigated by an IFN-gamma ELISPOT assay, CD107a mobilization assay and ^51Cr release assay as described previously (Komori H et al. Clin Cancer Res 2006; 12: 2689-97) and below.
The frequency of cells producing interferon (IFN)-gamma per 1×10^5 CTLs upon stimulation with Lu99 cells (1×10^4/well) or peptide-pulsed C1R-A2402 and T2 cells (1×10^4/well) was analyzed by an ELISPOT assay (Human IFN-gamma ELISPOT kit, BD Biosciences) as previously described (Komori H et al., Clin Cancer Res 2006; 12:2689-97, Bourgault V I et al., Cancer Res 2004; 64:8761-6). The CTLs were co-cultured with cancer cells or peptide-pulsed C1R-A2402 and T2 cells as target cells (5×10^3/well) at the indicated effector-to-target ratio, and a standard ^51Cr-release assay was performed as described previously (Yokomine K et al., Int J Cancer 2009; 126:2153-63, Monji M et al., Clin Cancer Res 2004; 10:6047-57). The blocking of HLA-class I by anti-human HLA class I mAb, W6/32 (IgG2a, Santa Cruz Biotechnology), or HLA-class II by anti-human HLA-DR mAb (IgG2a, BD Biosciences), was performed as described previously (Komori H et al., Clin Cancer Res 2006; 12:2689-97, Makita M et al., Clin Cancer Res 2002; 8:2626-31).
The test system of series [2] is EBC-1 cells (CDC45L+, HLA-A24+). Format: cell-based, human. As for the experimental part:
(§1) To knock down the expression of CDC45L in lung cancer cells, CDC45L small interfering (si) RNAs (human Cdc45 siRNA, sc-35044: a pool of three target-specific 20-25 nt siRNAs; Santa Cruz) were added at a final concentration of 150 nM to 40-60% confluent cells. Lipofectamine™ 2000 (Invitrogen) was used to transfect the siRNAs into cells, according to the manufacturer's instructions. GFP siRNAs were used as an irrelevant control. The treated cells were washed once with PBS, and adherent cells were collected at 72 h after transfection and used as target cells for the ^51Cr-release assay. To investigate the ability of siRNA to suppress CDC45L expression, western blot analysis was performed as described previously (Nakatsura T et al., Biochem Biophys Res Commun 2003; 306:16-25). Cancer cells were washed once with PBS at 48 h after transfection, and adherent cells were collected and lysed to analyze the expression levels of CDC45L for comparison with those of negative control cells. Beta-actin was used as the internal control. Rabbit polyclonal antibody reactive to CDC45L (sc-20685, Santa Cruz Biotechnology) was used as the primary antibody.

Series [3] is described as follows: Immunization of BALB/c mice with peptides emulsified in incomplete Freund adjuvant. Format: in vivo. Particulars: long-term observation period, unpublished data.
The test system of series [4] is Lu99 cells (CDC45L+, HLA-A24+). As to the kind of experiment: 51Cr-release assay against Lu99 lung cancer cells. Format: cell-based, human. How it is done: as §1
The subject of series [5] is A549 cells (CDC45L+, HLA-A24-). Format: cell-based, human.
Protocol: (§2) The CTLs were co-cultured with cancer cells or peptide-pulsed C1R-A2402 and T2 cells as target cells (5×10^3/well) at the indicated effector-to-target ratio, and a standard ^51Cr-release assay was performed as described previously (Yokomine K et al., Int J Cancer 2009; 126:2153-63, Monji M et al., Clin Cancer Res 2004; 10:6047-57). The blocking of HLA-class I by anti-human HLA class I mAb, W6/32 (IgG2a, Santa Cruz Biotechnology), or HLA-class II by anti-human HLA-DR mAb (IgG2a, BD Biosciences), was performed as described previously (Komori H et al., Clin Cancer Res 2006; 12:2689-97, Makita M et al., Clin Cancer Res 2002; 8:2626-31).
For series [6], the system named is T2 cells pulsed with the peptide. Particulars: CTL lines from HLA-A2 positive healthy donor; not against HIV-A2 peptide-loaded T2 cells.
Protocol: PBMCs were isolated from HLA-A24 or HLA-A2 positive Japanese healthy donors and lung cancer patients, and the peripheral monocyte-derived dendritic cells (DCs) were generated as described previously (Harao M et al., Int J Cancer 2008; 123:2616-25, Naito K et al., Int J Oncol 2006; 28:1481-9). The DCs were pulsed with 20 micro-g/mL of the candidate peptides in the presence of 4 micro-g/mL beta 2-microglobulin (Sigma-Aldrich) for 2 h at 37 degrees C. in AIM-V (Invitrogen) supplemented with 2% heat-inactivated autologous plasma. The cells were then irradiated (40 Gy) and incubated with the isolated CD8^+ T cells as described previously (Imai K et al., Clin Cancer Res 2008; 14:6487-95, Harao M et al., Int J Cancer 2008; 123:2616-25). Two additional stimulations with peptide-loaded autologous PHA-blasts were performed on days 7 and 14. […]
The frequency of cells producing interferon (IFN)-gamma per 1×10^5 CTLs upon stimulation with Lu99 cells (1×10^4/well) or peptide-pulsed C1R-A2402 and T2 cells (1×10^4/well) was analyzed by an ELISPOT assay (Human IFN-gamma ELISPOT kit, BD Biosciences) as previously described (Komori H et al., Clin Cancer Res 2006; 12:2689-97, Bourgault V I et al., Cancer Res 2004; 64:8761-6). […]
The subject of series [7] is Panc1 cells (CDC45L+, HLA-A2+, HLA-A24-). As to the kind of experiment: 51Cr-release assay against Panc1 cells. Conditions: not inhibited by control anti-HLA-class II mAb.
Protocol: as §2

Read-outs that look alike come from different tables or passages of the source. Where a SMILES comes first, the peptide text is derived from it.

For `CC[C@H](C)[C@H](NC(=O)[C@H](CC(C)C)NC(=O)[C@H](C)NC(=O)[C@H](CC(=O)O)NC(=O)[C@H](CC(C)C)NC(=O)[C@H](Cc1ccccc1)NC(=O)[C@@H](N)CCCCN)C(=O)N[C@@H](CO)C(=O)N[C@@H](CC(C)C)C(=O)N[C@@H](CC(C)C)C(=O)O` [CDC45L-A24-10-556-12] (H-KFLDALISLL-OH), the “cytotoxic activity of CTL lines against peptide-pulsed C1R-A2402 cells” value (from here on “cytotoxic activity of CTL lines”) in series [1] was “exhibited cytotoxic activity”.

Regarding `CC(C)C[C@H](NC(=O)[C@H](Cc1ccccc1)NC(=O)[C@@H](N)CCCCN)C(=O)N[C@@H](C)C(=O)N[C@@H](CO)C(=O)N[C@@H](CC(=O)O)C(=O)N[C@H](C(=O)N[C@H](C(=O)N[C@@H](Cc1ccccc1)C(=O)O)C(C)C)C(C)C` [CDC45L-A24-9-370-7] (H-KFLASDVVF-OH), the “cytotoxicity of peptide-induced CTLs against EBC-1 cells” value in series [2] was “exhibited cytotoxicity”. The “cytotoxic activity of CTL lines” value in series [1] is given as “exhibited cytotoxic activity”.

For the compound `CC(C)C[C@H](NC(=O)[C@H](CCCCN)NC(=O)[C@H](Cc1ccccc1)NC(=O)[C@H](CCCNC(=N)N)NC(=O)[C@H](C)NC(=O)[C@H](C)NC(=O)[C@@H](NC(=O)[C@H](Cc1ccc(O)cc1)NC(=O)[C@@H](N)CO)[C@@H](C)O)C(=O)O` [CDC45L-A24-9-294-3] (H-SYTAARFKL-OH), the “cytotoxicity of peptide-induced CTLs against EBC-1 cells” value in series [2] was “exhibited cytotoxicity”. In addition, in series [3], the “pathological changes, such as lymphocyte infiltration or tissue destruction” value is listed as “did not exhibit pathological changes”; the “signs of autoimmune diseases, such as weight loss, diarrhea and skin abnormalities” value is on record as “no signs of autoimmune diseases”. Further, in series [1], the “cytotoxic activity of CTL lines” value was “exhibited cytotoxic activity”.

For `CC[C@H](C)[C@H](NC(=O)[C@H](CCC(N)=O)NC(=O)[C@@H](NC(=O)[C@H](CC(=O)O)NC(=O)[C@H](CC(N)=O)NC(=O)[C@H](Cc1ccc(O)cc1)NC(=O)[C@@H](N)C(C)C)[C@@H](C)O)C(=O)N[C@@H](CCCCN)C(=O)N[C@@H](CC(C)C)C(=O)O` [CDC45L-A24-9-109-2] (H-VYNDTQIKL-OH), in series [4], the “cytotoxicity of peptide-induced CTLs against Lu99 cells” value is “exhibited cytotoxicity” and the “cytotoxicity of peptide-induced CTLs against Lu99 cells transfected with CDC45L specific siRNAs” value was “not against”. Further, the “cytotoxicity of peptide-induced CTLs against A549 cells” value in series [5] is recorded as “not against”. In series [3], the “pathological changes, such as lymphocyte infiltration or tissue destruction” value is listed as “did not exhibit pathological changes”; the “signs of autoimmune diseases, such as weight loss, diarrhea and skin abnormalities” value is listed as “no signs of autoimmune diseases”. Also, the “cytotoxic activity of CTL lines” value in series [1] is “exhibited cytotoxic activity”.

`CC[C@H](C)[C@H](NC(=O)[C@H](CC(C)C)NC(=O)[C@H](C)NC(=O)[C@H](CC(=O)O)NC(=O)[C@H](CC(C)C)NC(=O)[C@H](Cc1ccccc1)NC(=O)[C@@H](N)CCCCN)C(=O)N[C@@H](CO)C(=O)N[C@@H](CC(C)C)C(=O)O` [CDC45L-A24-9-556-4] (H-KFLDALISL-OH): in series [4] (CDC45L-, HLA-A24+ target cells), the “cytotoxicity of peptide-induced CTLs against Lu99 cells transfected with CDC45L specific siRNAs” value was “not against”. Besides, in series [4] (Lu99 cells and Lu99 cells transfected with control GFP siRNAs), the “cytotoxicity of peptide-induced CTLs against Lu99 cells” value is reported as “exhibited cytotoxicity”. Moreover, in series [1], the “cytotoxic activity of CTL lines” value is “exhibited cytotoxic activity” and the “cytotoxicity of CTL lines against C1R-A2402 cells loaded with the peptide” value is reported as “not against”. Moreover, the “cytotoxicity of CTL lines against peptide-pulsed T2 cells” value in series [6] is reported as “exhibited cytotoxicity”. In addition, the “cytotoxicity against Panc1 cells in presence of blocking mAb against HLA-class I (W6/32)” value in series [7] was “significantly inhibited”.

The record behind these values is US8586547B2, “CDC45L peptides and vaccines including the same” (Oncotherapy Science, Inc., priority 2009, dated 2013).
